# Assay results published in patent US8247449B2, “Methods and compositions for the treatment of asthma” (Wake Forest University, priority 1998, dated 2012).
# Entries after “also recorded” stand apart in the source; their conditions may differ. Read-outs that look alike come from different tables or passages of the source.
# What was measured:
# [1] = system: leukotriene generation by stimulated neutrophils; assay: Inhibition of leukotriene generation in A23187-stimulated neutrophils in vitro; format: cell-based, human; conditions: neutrophils from unsupplemented volunteers, ionophore A23187, read-out: IC50 of inhibition of leukotriene generation (LTB4 and 20-OH LTB4)
# Procedure: (§1) Leukotrienes are separated by reverse phase HPLC utilizing an Ultrasphere ODS column (2.1 mm.×250 mm: Rainin Instrument Co, Woburn, Mass.) eluted with methanol/water/phosphoric acid (550:450:0.2 v/v, pH 5.7) as the mobile phase at 0.3 ml/min. After 5 min the methanol composition of the mobile phase is increased from 55% to 100% over a 20 min period. The mole quantities of each leukotriene are determined by examining its UV optical density at 270 nm. Individual peaks are integrated and their recoveries normalized by comparing these integrated areas to that of PGB2 added as an internal standard.
# It is contemplated that neutrophils may also produce 8-hydroxy-9,11,14 […] from DGLA. […] Studies were also designed to examine whether 15-HETrE produced by neutrophils might influence LTB4 generation. […] Neutrophils were isolated from normal unsupplemented volunteers and were treated with various concentrations of 15-HETrE and then stimulated with ionophore A23187.
# [2] = system: Δ^5 desaturase in human liver cell line HEP-G2; assay: Inhibition of DGLA conversion to AA (Δ5 desaturase) in HEP-G2 liver cells; format: cell-based; conditions: HepG2, HEP-G2, EPA at 50 μM added with DGLA, read-out: maximum inhibition of DGLA conversion to AA
# Source text: This study illustrates the effectiveness of adding a Δ^5 desaturase inhibitor in conjunction with GLA in order to reduce serum arachidonic acid.
# neutrophils [3] = system: neutrophils
# Procedure: Free fatty acids are obtained from glycerolipids by base hydrolysis using 2 N KOH (30 min, 60° C.). After the addition of an equal volume of water, the pH of the reaction mixture is adjusted to 3 using 6 N HCl. Free fatty acids are then extracted with ethyl ether and converted to pentafluorobenzylesters using an equal volume of 20% pentafluorobenzylchloride in acetonitrile and 20% diisopropylethylamine in acetonitrile. The carboxylate anion of all fatty acids of interest and [^2H3]-stearic acid and [^2H8]-arachidonate (internal standard) are analyzed by NICI GC/MS using a Hewlett Packard mass spectrometer (HP 5989A).
# Neutrophils were next obtained from subjects before and after supplementation and stimulated with ionophore A23187.
# atopic asthmatics [4] = system: atopic asthmatics
# Source text: Clinical data on each patient is entered into a database consisting of the following elements. Demographic data (age, sex, race, smoking history), and the data elements used to fulfill the above diagnostic criteria, spirometric data, presence of atopy (positive “prick” skin testing to respirable antigens), presence of LAR to inhaled antigen, and presence of allergic rhinoconjunctivitis. • Allergen skin testing—Atopic asthmatic subjects are identified by skin testing using the skin prick method at a 1:10 (wt/vol) dilution of 20 stock antigen solutions (Greer Laboratories, Lenoir, N.C.). Subjects must not be receiving immunotherapy, nor may they be treated with systemic corticosteroids for a minimum of 4 wk. Short acting antihistamines are avoided for at least 24 h and long acting for at least 7 days. Atopic subjects are defined as those with a positive response consisting of a wheal of at least 3 by 3 mm to one or more antigens, with an appropriately negative saline control. • Allergen Inhalation Challenge—The immediate (early) asthmatic response (EAR) or late asthmatic response (LAR) is studied under controlled conditions using inhaled antigenic challenge in volunteer patients with asthma using a previously described protocol (Smith et al., Clin. Pharm. Ther., 54:430-436, 1993). Atopic asthmatics undergo inhaled allergen challenge followed by BAL according to the following protocol. Subjects must have no lung disease other than asthma, and, on the day of testing, must have a baseline FEV1>70% of predicted. Subjects must not be receiving immunotherapy, nor may they be treated with cromolyn sodium or corticosteroids (inhaled or systemic) or leukotriene antagonist for a minimum of 4 wk. Short-acting antihistamines are avoided for at least 24 h and intermediate acting for 7 days (astemizole for 6 weeks). Theophylline preparations are withheld for 24 h prior to challenge and beta-agonists for 8 h prior to challenge. On the day of challenge, subjects must be wheeze-free, with an FEV1>than 80% of the previously observed highest value. If the patient has an intercurrent respiratory infection, inhalation challenge is postponed for at least 6 wk. Antigens to which the subject is perennially exposed (e.g., mite, cat) are utilized whenever possible to minimize the impact of seasonal variations in environmental exposure to the specific antigen. Further, antigen testing is conducted out of the respective allergen season, or after attempts to minimize environmental exposure (e.g., to mites or cats) have been implemented. Antigenic challenge generally begins between 7:30 and 8:00 am and the patient is monitored for a minimum of 12 h following antigenic challenge. […] The subject breathes quietly from a continuous hand-held nebulizer for 2 min at each concentration. Following each concentration, the FEV1 is measured at 5 min intervals (DS Plus, Warren E. Collins, Inc., Braintree, Mass.). […] Once a 20% drop in FEV1 is measured, or following the highest concentration, spirometry is performed every 15 min for the first hour and then hourly for the next 11 h.
# human neutrophils [5] = assay: In vitro metabolism of GLA / DGLA in cultured human neutrophils; format: cell-based
# Procedure: It is generally assumed that the liver has a key role in the in vivo elongation and desaturation of n-6 fatty acids. However, the role of other cells (especially inflammatory cells) and tissues has not been extensively studied. In addition, it is critical to evaluate the mechanism of leukotriene inhibition in less complex (than in vivo model) systems. To begin to address these problems, the inventor developed a model in which neutrophils could be incubated long-term with fatty acids or other fatty acid derivatives. Human neutrophils have been isolated and cultured overnight in RPMI, 2% insulin-transferrin and fetal bovine serum (FBS). In initial studies, varying concentrations of GLA (complexed to albumin) were provided to these cultured neutrophils for 24 h. […] In contrast, there was no change in the quantity of AA in neutrophil phospholipids. […] Furthermore, they provide direct evidence that the neutrophils themselves can elongate GLA […].
# It has been long recognized that arachidonate is hydrolyzed from membrane glycerolipids by phospholipase A2 isotypes during cell stimulation. However, to date, there is little direct evidence that similar mechanisms exist to mobilize DGLA. To examine this question, neutrophils that had been cultured with varying concentrations of GLA (0 to 200 nmol) were stimulated with ionophore A23187, and mobilized fatty acids were measured by NICI GC/MS. […] To determine if neutrophils can further metabolize DGLA to oxygenated products, stimulated cells were provided [^14C]-DGLA and products were measured by reverse HPLC. […] FIG. 11 illustrates that A23187 stimulated neutrophils produce a labeled product that migrated with 15-HETrE.
# neutrophils [6] = conditions: 3.0 g/day GLA
# Procedure: as §1
# To examine this question, neutrophils were stimulated and the synthesis of LTB4, 20-OH LTB4, and the 6 trans isomers of LTB4 were measured by reverse phase HPLC analysis.
# human eosinophils = conditions: eosinophils from atopic subjects incubated with GLA
# Procedure: Eosinophils are purified by negative, immunomagnetic selection using monoclonals against FcKRIII (CD 16) present on neutrophils. Antibody tagged neutrophils are then incubated with anti-mouse IgG conjugated magnetic beads and removed by filtration over a magnetized steel wool column.
# Therefore, it was important to determine how GLA was metabolized by human eosinophils. Thus, eosinophils were isolated from atopic subjects and incubated with GLA as described above.
# [7] = in vivo
# Procedure: Serum is extracted from 2 ml of venous blood from donors. Briefly, blood samples are incubated at 37° C. for 30 min. Blood clots are removed from the serum by centrifugation (600×g, 10 min). Residual red blood cells are removed from the serum by centrifugation using a Beckman Microfuge E for 5 min. After the addition of 1.9 ml of water to a 0.1 ml aliquot of the serum, lipids are extracted by the method of Bligh and Dyer (Bligh and Dyer, Can. J. Biochem. Physiol., 37:911-920, 1959); Chilton et al., J. Biol. Chem., 258:7268-7271, 1983). A portion (5%) of the extracted lipids is used to determine the mole quantities of fatty acids by GC/MS. Serum components are isolated into individual glycerolipid classes by TLC (System II or normal phase HPLC (Bligh and Dyer, 1959).
# Free fatty acids are obtained from glycerolipids by base hydrolysis using 2 N KOH (30 min, 60° C.). […] The carboxylate anion of all fatty acids of interest and [^2H3]-stearic acid and [^2H8]-arachidonate (internal standard) are analyzed by NICI GC/MS using a Hewlett Packard mass spectrometer (HP 5989A). […]
# The next set of studies was designed to determine the distribution of supplemented fatty acids or their metabolites within individual glycerolipid classes of serum. […] Serum glycerolipids were separated by TLC and fractions were analyzed for fatty acid content following base hydrolysis by NICI-GC/MS.
# neutrophils [8] = conditions: 3.0 g/day GLA; remark: listed apart in the source
# Source text: A final set of studies measured changes in the capacity of neutrophils to generate PAF ex vivo before and after GLA supplementation.
# atopic asthmatics [9] = assay: Inhaled antigen challenge model of atopic asthma with prednisone; format: in vivo, human; conditions: 40 mg prednisone daily for 7 days
# Source text: Clinical data on each patient is entered into a database consisting of the following elements. Demographic data (age, sex, race, smoking history), and the data elements used to fulfill the above diagnostic criteria, spirometric data, presence of atopy (positive “prick” skin testing to respirable antigens), presence of LAR to inhaled antigen, and presence of allergic rhinoconjunctivitis. • Allergen skin testing—Atopic asthmatic subjects are identified by skin testing using the skin prick method at a 1:10 (wt/vol) dilution of 20 stock antigen solutions (Greer Laboratories, Lenoir, N.C.). Subjects must not be receiving immunotherapy, nor may they be treated with systemic corticosteroids for a minimum of 4 wk. Short acting antihistamines are avoided for at least 24 h and long acting for at least 7 days. […] Antigenic challenge generally begins between 7:30 and 8:00 am and the patient is monitored for a minimum of 12 h following antigenic challenge. […] Following each concentration, the FEV1 is measured at 5 min intervals (DS Plus, Warren E. Collins, Inc., Braintree, Mass.). […] Once a 20% drop in FEV1 is measured, or following the highest concentration, spirometry is performed every 15 min for the first hour and then hourly for the next 11 h.
# human neutrophils [10] = assay: In vitro metabolism of stearidonic acid in cultured human neutrophils; format: cell-based; conditions: 24 h
# Source text: As described above, human neutrophils (in vitro in overnight culture) will take up GLA and elongate it to DGLA but not further desaturate that DGLA to AA. An alternative route to depleting AA in neutrophils may also be useful in modulating the inflammatory responses mediated by AA and its metabolites. It was contemplated that the n-3 fatty acid, stearidonic acid (18:4) would also be elongated in neutrophils to form ω-3 arachidonic acid (FIG. 1). Varying concentrations of stearidonic acid were provided to cultured neutrophils for 24 h. Lipids were extracted and the quantities of fatty acids determined after base hydrolysis using GC/MS.
# [11] = 4.5 g GLA as borage oil, 3 weeks, contemplated
smiles,measurement,setting,value
"CCCCCC(O)/C=C/C=C\C/C=C\CCCCCCC(=O)O (centres unmarked) [15-HETrE, 15-OH-20:3, reference compound]",IC50,[1],~5 µM
"CCCCC/C=C\C/C=C\C/C=C\CCCCCCC(=O)O [DGLA, dihomogammalinolenic acid]",IC50,"[1]; Homo sapiens, Neutrophil",~10 µM
"CC/C=C\C/C=C\C/C=C\C/C=C\C/C=C\CCCC(=O)O [EPA, eicosapentaenoic acid]",inhibition at 50 µM,[2],50%
"CCCCC/C=C\C/C=C\C/C=C\CCCCC(=O)O [GLA, gammalinolenic acid]",increase in release of DGLA from stimulated neutrophils,neutrophils [3]; 1.5 g/day GLA,63%
same,increase in release of DGLA from stimulated neutrophils,neutrophils [3]; 3.0 g/day GLA,65%
same,increase in release of DGLA from stimulated neutrophils,neutrophils [3]; 6.0 g/day GLA,69%
same,release of AA from neutrophil glycerolipids after A23187 stimulation,neutrophils [3]; following GLA supplementation,did not change
same,antigen-induced urinary LTE4 and BALF AA increases,atopic asthmatics [4]; [11],attenuate
same,influx of eosinophils into airways during the LAR,atopic asthmatics [4]; [11],reduce
same,"response to antigen challenge (decrements in FEV1, immediate and late)",atopic asthmatics [4]; [11],mitigate
same,magnitude of the early asthmatic response,"atopic asthmatics [4]; four weeks GLA supplementation, compared to pre- and post-supplementation, two subjects",diminished
same,late asthmatic response,"atopic asthmatics [4]; four weeks GLA supplementation, two subjects",did not influence
same,quantity of DGLA in neutrophil glycerolipids,"human neutrophils [5]; cultured neutrophils, varying concentrations of GLA complexed to albumin, 24 h",increased as a function of the concentration of GLA
same,quantity of AA in neutrophil phospholipids,"human neutrophils [5]; cultured neutrophils, varying concentrations of GLA, 24 h",no change
same,fatty acids mobilized on A23187 stimulation,human neutrophils [5]; neutrophils cultured with GLA (0 to 200 nmol),DGLA along with AA were released
same,"20-OH LTB4, 6-trans LTB4 and 6-trans 12-epi LTB4 levels after supplementation",neutrophils [6],decreased to a similar degree
same,reduction in LTB4 produced by stimulated neutrophils vs before supplementation,neutrophils [6],60%
same,DGLA in eosinophil glycerolipids,human eosinophils,marked increase
same,quantity of AA in eosinophil glycerolipids,human eosinophils,no change
same,AA in serum lipids vs baseline,[7],significantly increased
same,reduction in PAF produced by neutrophils vs before supplementation,neutrophils [8],40%
C[C@]12C=CC(=O)C=C1CC[C@@H]1[C@@H]2C(=O)C[C@@]2(C)[C@H]1CC[C@]2(O)C(=O)CO [prednisone],immediate response and LAR (fall in FEV1) after antigen challenge,atopic asthmatics [9],ablated
same,level of eosinophil cationic protein (ECP) in BALF after antigen challenge,atopic asthmatics [9]; p=0.03,suppressed
CC/C=C\C/C=C\C/C=C\C/C=C\CCCCC(=O)O [stearidonic acid],AA in neutrophils,human neutrophils [10],nor was there an increase
same,eicosapentaenoic acid (Δ5 desaturase product of ω-3 arachidonic acid) in neutrophils,human neutrophils [10],no increase
same,ω-3 arachidonic acid in neutrophil glycerolipids,human neutrophils [10]; varying concentrations of stearidonic acid,dose-dependent increase; also recorded: dramatic increase
